Legend:
EGFR tyrosine kinase = target: T1, EGFR tyrosine kinase (Homo sapiens, UniProt P00533); experiment: Protein tyrosine kinase phosphorylation assay, Test (a), EGFR; assay type: biochemical; conditions: recombinant intracellular fragment, ATP at Km; read-out: IC50 (μM) Test (a): Inhibition of EGFR tyrosine kinase protein phosphorylation
T1 construct: Recombinant intracellular fragments of EGFR, erbB2 and erbB4; made in house; host or cells: baculovirus/Sf21 insect cells (cleared lysate used)
Description: (§1) a) Protein Tyrosine Kinase phosphorylation Assays
(§2) This test measures the ability of a test compound to inhibit the phosphorylation of a tyrosine containing polypeptide substrate by an erb receptor tyrosine kinase enzyme.
(§3) Recombinant intracellular fragments of EGFR, erbB2 and erbB4 (accession numbers X00588, X03363 and L07868 respectively) were cloned and expressed in the baculovirus/Sf21 system. Lysates were prepared from these cells by treatment with ice-cold lysis buffer (20 mM N-2-hydroxyethylpiperizine-N′-2-ethanesulfonic acid (HEPES) pH7.5, 150 mM NaCl, 10% glycerol, 1% Triton X-100, 1.5 mM MgCl2, 1 mM ethylene glycol-bis(β-aminoethyl ether) N′,N′,N′,N′-tetraacetic acid (EGTA), plus protease inhibitors and then cleared by centrifugation.
(§4) Constitutive kinase activity of these recombinant proteins was determined by their ability to phosphorylate a synthetic peptide (made up of a random co-polymer of Glutamic Acid, Alanine and Tyrosine in the ratio of 6:3:1). Specifically, Maxisorb™ 96-well immunoplates were coated with synthetic peptide (0.2 μg of peptide in a 200 μl phosphate buffered saline (PBS) solution and incubated at 4° C. overnight). Plates were washed in 50 mM HEPES pH 7.4 at room temperature to remove any excess unbound synthetic peptide. […]
(§5) The immobilised phospho-peptide product of the reaction was detected by immunological methods. […] After further washing, HRP activity in each well of the plate was measured colorimetrically using 22′-Azino-di-[3-ethylbenzthiazoline sulfonate (6)]diammonium salt crystals (ABTS™ from Roche) as a substrate.
(§6) Quantification of colour development and thus enzyme activity was achieved by the measurement of absorbance at 405 nm on a Molecular Devices ThermoMax microplate reader. Kinase inhibition for a given compound was expressed as an IC50 value. […] The range of phosphorylation was calculated from the positive (vehicle plus ATP) and negative (vehicle minus ATP) control values.

erbB2 tyrosine kinase = target: T2, erbB2 tyrosine kinase (Homo sapiens, UniProt P04626); experiment: Protein tyrosine kinase phosphorylation assay, Test (a), erbB2; assay type: biochemical; conditions: recombinant intracellular fragment, ATP at Km; read-out: IC50 (μM) Test (a): Inhibition of erbB2 tyrosine kinase protein phosphorylation
T2 construct: Recombinant intracellular fragments of EGFR, erbB2 and erbB4; made in house; host or cells: baculovirus/Sf21 insect cells (cleared lysate used)
Description: as §1, §2, §3, §4, §5, §6

[1] = target: T3, erbB2 in a MCF7 derived cell line (Clone 24 cells) (Homo sapiens, UniProt P04626); experiment: Clone 24 phospho-erbB2 cell assay, Test (d); assay type: cell-based; conditions: 4 hours, read-out: IC50 (μM) Test (d): Inhibition of erbB2 tyrosine kinase protein phosphorylation
T3 construct: to give a cell line that overexpresses full length wild type erbB2 protein; expressed in transfected cells
Description: d) Clone 24 Phospho-erbB2 Cell Assay
This immunofluorescence end point assay measures the ability of a test compound to inhibit the phosphorylation of erbB2 in a MCF7 (breast carcinoma) derived cell line which was generated by transfecting MCF7 cells with the full length erbB2 gene using standard methods to give a cell line that overexpresses full length wild type erbB2 protein (hereinafter ‘Clone 24’ cells).
Clone 24 cells were cultured in Growth Medium (phenol red free Dulbecco's modified Eagle's medium (DMEM) containing 10% foetal bovine serum, 2 mM glutamine and 1.2 mg/ml G418) in a 7.5% CO2 air incubator at 37° C. Cells were harvested from T75 stock flasks by washing once in PBS (phosphate buffered saline, pH7.4, Gibco No. 10010-015) and harvested using 2 mls of Trypsin (1.25 mg/ml)/ethylaminediaminetetraacetic acid (EDTA) (0.8 mg/ml) solution. The cells were resuspended in Growth Medium. Cell density was measured using a haemocytometer and viability was calculated using Trypan Blue solution before being further diluted in Growth Medium and seeded at a density of 1×10^4 cells per well (in 10 ul) into clear bottomed 96 well plates (Packard, No. 6005182).
3 days later, Growth Medium was removed from the wells and replaced with 100 ul Assay Medium (phenol red free DMEM, 2 mM glutamine, 1.2 mg/ml G418) either with or without erbB inhibitor compound. Plates were returned to the incubator for 4 hours and then 20 μl of 20% formaldehyde solution in PBS was added to each well and the plate was left at room temperature for 30 minutes. This fixative solution was removed with a multichannel pipette, 100 μl of PBS was added to each well and then removed with a multichannel pipette and then 50 μl PBS was added to each well. Plates were then sealed and stored for up to 2 weeks at 4° C.
Immunostaining was performed at room temperature. […]
The Fluorescence signal is each well was measured using an Acumen Explorer Instrument (Acumen Bioscience Ltd.), a plate reader that can be used to rapidly quantitate features of images generated by laser-scanning. […]

T3 sequence (P04626 23-1255): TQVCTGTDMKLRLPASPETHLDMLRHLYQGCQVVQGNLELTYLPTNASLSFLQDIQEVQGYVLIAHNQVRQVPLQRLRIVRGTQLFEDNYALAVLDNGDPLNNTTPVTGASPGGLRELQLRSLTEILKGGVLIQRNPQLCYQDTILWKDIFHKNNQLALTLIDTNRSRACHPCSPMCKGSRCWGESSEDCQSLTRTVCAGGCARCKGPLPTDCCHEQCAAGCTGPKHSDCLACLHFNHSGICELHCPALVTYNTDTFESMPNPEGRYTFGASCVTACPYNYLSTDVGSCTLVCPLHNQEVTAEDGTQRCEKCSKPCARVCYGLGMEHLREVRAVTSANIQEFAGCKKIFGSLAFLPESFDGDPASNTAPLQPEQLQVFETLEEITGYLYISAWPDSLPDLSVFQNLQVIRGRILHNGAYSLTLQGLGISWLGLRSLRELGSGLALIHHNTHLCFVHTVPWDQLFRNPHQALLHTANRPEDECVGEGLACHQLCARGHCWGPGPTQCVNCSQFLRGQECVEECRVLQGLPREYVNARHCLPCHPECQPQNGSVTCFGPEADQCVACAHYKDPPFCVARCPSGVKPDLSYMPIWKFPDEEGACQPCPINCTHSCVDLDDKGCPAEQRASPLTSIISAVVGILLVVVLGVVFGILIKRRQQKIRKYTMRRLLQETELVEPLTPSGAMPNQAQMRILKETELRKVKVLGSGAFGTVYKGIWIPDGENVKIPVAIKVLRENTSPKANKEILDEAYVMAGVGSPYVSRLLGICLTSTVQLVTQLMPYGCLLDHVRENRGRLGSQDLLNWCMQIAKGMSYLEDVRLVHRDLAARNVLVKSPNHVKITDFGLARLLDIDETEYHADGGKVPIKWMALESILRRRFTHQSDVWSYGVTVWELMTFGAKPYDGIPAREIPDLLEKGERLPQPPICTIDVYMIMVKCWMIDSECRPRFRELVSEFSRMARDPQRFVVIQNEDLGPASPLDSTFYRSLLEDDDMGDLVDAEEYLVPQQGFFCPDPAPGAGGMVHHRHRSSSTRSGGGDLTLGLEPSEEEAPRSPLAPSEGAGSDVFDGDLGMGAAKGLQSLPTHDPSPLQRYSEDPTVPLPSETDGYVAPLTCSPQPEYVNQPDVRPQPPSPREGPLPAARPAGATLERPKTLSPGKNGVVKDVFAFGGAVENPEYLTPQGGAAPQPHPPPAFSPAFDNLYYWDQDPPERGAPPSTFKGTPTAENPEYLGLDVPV
T2 sequence (P04626 676-1255 limits assumed): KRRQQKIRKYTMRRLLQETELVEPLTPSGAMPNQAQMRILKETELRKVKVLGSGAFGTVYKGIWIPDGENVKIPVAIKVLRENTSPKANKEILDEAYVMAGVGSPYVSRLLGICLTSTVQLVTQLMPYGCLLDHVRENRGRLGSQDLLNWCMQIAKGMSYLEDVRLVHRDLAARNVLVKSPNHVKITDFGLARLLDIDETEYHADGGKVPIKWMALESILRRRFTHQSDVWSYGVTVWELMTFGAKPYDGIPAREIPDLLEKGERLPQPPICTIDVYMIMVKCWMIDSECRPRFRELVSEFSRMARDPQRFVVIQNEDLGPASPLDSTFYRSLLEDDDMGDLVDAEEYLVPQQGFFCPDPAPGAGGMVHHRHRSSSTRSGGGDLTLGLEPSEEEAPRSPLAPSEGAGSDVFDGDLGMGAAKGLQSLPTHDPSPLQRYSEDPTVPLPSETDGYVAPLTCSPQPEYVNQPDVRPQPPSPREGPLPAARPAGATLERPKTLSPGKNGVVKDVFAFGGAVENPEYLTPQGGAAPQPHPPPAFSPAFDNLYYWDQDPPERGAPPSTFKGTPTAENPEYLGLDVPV
T1 sequence (P00533 669-1210 limits assumed): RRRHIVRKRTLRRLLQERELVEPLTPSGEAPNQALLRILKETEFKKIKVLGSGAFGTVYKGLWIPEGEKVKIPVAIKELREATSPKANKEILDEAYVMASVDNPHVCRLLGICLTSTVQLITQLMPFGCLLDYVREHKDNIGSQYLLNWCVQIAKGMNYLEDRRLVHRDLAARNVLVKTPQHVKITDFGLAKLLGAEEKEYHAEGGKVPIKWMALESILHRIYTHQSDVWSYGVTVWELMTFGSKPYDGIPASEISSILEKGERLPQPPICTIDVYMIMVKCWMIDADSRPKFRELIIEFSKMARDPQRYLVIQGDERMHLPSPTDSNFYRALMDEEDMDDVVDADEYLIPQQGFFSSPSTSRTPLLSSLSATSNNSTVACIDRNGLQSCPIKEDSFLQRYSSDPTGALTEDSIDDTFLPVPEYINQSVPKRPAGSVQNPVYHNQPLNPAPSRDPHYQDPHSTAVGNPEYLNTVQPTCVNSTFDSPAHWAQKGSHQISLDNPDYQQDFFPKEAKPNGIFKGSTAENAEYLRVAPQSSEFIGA

IC50 (EGFR tyrosine kinase) [µM] | IC50 (erbB2 tyrosine kinase) [µM] | IC50 [1] [µM] | Structure (SMILES)
0.414 | 0.002 | 0.009 | O=C(CO)N(CCOc1cccc2ncnc(Nc3ccc(OCc4ccccn4)c(Cl)c3)c12)C1CCOCC1 [Example 21, N-{2-[(4-{[3-Chloro-4-(pyridin-2-ylmethoxy)phenyl]amino}quinazolin-5-yl)oxy]ethyl}-2-hydroxy-N-(tetrahydro-2H-pyran-4-yl)acetamide]
0.197 | 0.002 | 0.112 | CC(O)C(=O)N(C)CCOc1cccc2ncnc(Nc3ccc(OCc4ccccn4)c(Cl)c3)c12 (stereo not drawn) [Example 28, N-{2-[(4-{[3-Chloro-4-(pyridin-2-ylmethoxy)phenyl]amino}quinazolin-5-yl)oxy]ethyl}-2-hydroxy-N-methylpropanamide]
1.88 | 0.017 | 0.021 | CC(=O)N(C)C[C@@H](C)Oc1cccc2ncnc(Nc3ccc(Oc4ccc(C)nc4)c(C)c3)c12 [Example 104, N-Methyl-N-((2R)-2-{[4-({3-methyl-4-[(6-methylpyridin-3-yl)oxy]phenyl}amino)quinazolin-5-yl]oxy}propyl)acetamide]
